Data: publication PMC6625456 (Molecular Medicine Reports, 2019)

Legend:
[1] = system: Aβ1-42-induced amnesia in mice; settings: cited from earlier work
APP/PS1 transgenic mice = settings: cited from earlier work
CYP2D6 = CYP2D6 (Homo sapiens, UniProt P10635); experiment: metabolism in recombinant human CYP450 enzymes; assay type: in vitro ADME; settings: DL0410 10 µM; recombinant CYP1A2, CYP2C9, CYP2D6, CYP3A4; 37°C, 2 h
[2] = cumulative excretion in bile, urine and feces; assay type: in vivo, Sprague-Dawley (SD) rats; settings: oral 100 mg/kg
[3] = plasma pharmacokinetics after oral and intravenous administration; assay type: in vivo, Sprague-Dawley (SD) rats; settings: both, Sprague-Dawley, rat
[4] = concentration in entorhinal cortex and hippocampus after oral administration; assay type: in vivo, Sprague-Dawley (SD) rats
AChE = settings: read-out: IC50, inhibition of AChE; in vitro; cited from earlier work
BChE = settings: read-out: IC50, inhibition of BChE; in vitro; cited from earlier work

CYP2D6, sequence (P10635 whole entry): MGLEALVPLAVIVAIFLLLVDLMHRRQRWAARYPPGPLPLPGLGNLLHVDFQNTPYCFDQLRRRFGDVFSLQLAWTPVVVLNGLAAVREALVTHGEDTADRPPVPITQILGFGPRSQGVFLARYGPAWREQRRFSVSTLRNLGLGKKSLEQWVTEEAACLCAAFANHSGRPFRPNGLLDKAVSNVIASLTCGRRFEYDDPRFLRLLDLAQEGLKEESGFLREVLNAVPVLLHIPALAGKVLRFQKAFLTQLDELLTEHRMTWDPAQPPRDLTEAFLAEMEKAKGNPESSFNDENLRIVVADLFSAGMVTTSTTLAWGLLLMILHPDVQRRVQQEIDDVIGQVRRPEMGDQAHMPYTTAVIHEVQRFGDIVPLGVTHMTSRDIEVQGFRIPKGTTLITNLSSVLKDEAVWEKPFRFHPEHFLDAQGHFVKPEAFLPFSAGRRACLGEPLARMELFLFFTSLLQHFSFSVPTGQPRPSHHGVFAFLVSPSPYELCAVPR

Cl.Cl.O=C(CCN1CCCCC1)c1ccc(-c2ccc(C(=O)CCN3CCCCC3)cc2)cc1 [DL0410, 1,1′-([1,1′-biphenyl]-4,4′-diyl)bis(3-(piperidin-1-yl)propan-1-one) dihydrochloride]
improvement of Aβ1-42-induced amnesia [1]: improve memory deficits | improvement of memory deficits (APP/PS1 transgenic mice): improve memory deficits in APP/PS1 transgenic mice | CYP450 isoform involved in the reduction reaction (CYP2D6): CYP2D6 was identified to be involved in the reduction of the carbonyl group | accumulated excretion in bile ([2]; rat bile, for 36 h): 0.010 % of the dose | cumulative fecal excretion ([2]; rat feces): 34.71% | cumulative urinary excretion ([2]; rat urine, in 72 h): 0.086 % of the dose | Tmax [3]: ~0.75 h | half-life [3]: 6.05 to 8.23 h | Cmax ([3]; 25 mg/kg): 0.0215 ± 0.00346 µg/mL | AUC(0-t) ([3]; 50 mg/kg): 0.239 ± 0.063 µg·h/mL | Cmax ([3]; 50 mg/kg): 0.0561 ± 0.00401 µg/mL | Cmax ([3]; 100 mg/kg): 0.196 ± 0.0468 µg/mL | Tmax ([4]; both, Sprague-Dawley, rat, entorhinal cortex and hippocampus, po, 100 mg/kg): ~6 h | Cmax ([4]; both, Sprague-Dawley, rat, entorhinal cortex, po, 100 mg/kg): 0.0462 ± 0.0132 µg/mL | Cmax ([4]; both, Sprague-Dawley, rat, hippocampus, po, 100 mg/kg): 0.0503 ± 0.00692 µg/mL | crossing of the blood-brain barrier ([4]; rats, oral 100 mg/kg, detectable level in EC and HIP): able to cross the blood-brain barrier | IC50 (AChE): 0.286 ± 0.004 µM | IC50 (BChE): 3.96 ± 0.099 µM
